Assay results published in patent US8227513B2, “Food composition for binding acetaldehyde in mouth and in digestive track, and method for the preparation of the composition” (Biohit Oyj, priority 2005, dated 2012).

Test: capability of cysteine to bind acetaldehyde from beers and yoghurts (gas chromatograph)
Settings: for acetaldehyde concentration after the treatment: incubated 5 min at room temperature
Experimental: In the test, the capability of cysteine to bind acetaldehyde from light alcohol drinks and milk products, such as yoghurt, was examined. The amounts of acetaldehyde in four Finnish yoghurts and three beers were measured by means of a standardized method (Homann et al. 1997. High acetaldehyde levels in saliva after ethanol consumption: Methodological aspects and pathogenic implications. Carcinogenesis 18:1739-1743). The average acetaldehyde concentration (±SEM) in the beers was 146±30 μM. L-cysteine was added to the beers so that the final cysteine concentration of the product was 0 (the control), 0.1, 3 and 10 mM (i.e., 0 mg/l, 12.1 mg/l, 363 mg/l and 1210 mg/l); thereafter, the beers were incubated for 5 min at room temperature. Thereafter, the acetaldehyde contents were measured by means of a gas chromatograph. The acetaldehyde concentrations after the treatment were 146±30 μM, 133±32 μM, 26±9 μM and 10±3 μM, correspondingly. In the yoghurt, the acetaldehyde concentrations were 419±53 μM, on an average. L-cysteine was added so that the cysteine concentrations in the final product were 0 (the control), 0.1, 3 and 10 mM (i.e., 0 mg/l, 12.1 mg/l, 363 mg/l, and 1210 mg/l); thereafter, the yoghurts were incubated for 5 min at room temperature. The acetaldehyde concentrations after the treatment were 419±53 μM, 240±42 μM, 55±15 μM, and 15±2 μM.

**Q.** For N[C@@H](CS)C(=O)O [L-cysteine], which “acetaldehyde concentration after the treatment” value (from here on “acetaldehyde concentration”) (beers (control 146±30 μM), final cysteine concentration 0.1 mM (12.1 mg/l), mean ±SEM) is on record?
**A.** Its value is 133 ± 32 µM.

**Q.** And the “acetaldehyde concentration” value (beers (control 146±30 μM), final cysteine concentration 3 mM (363 mg/l), mean ±SEM)?
**A.** The value was 26 ± 9 µM.

**Q.** What about the “acetaldehyde concentration” value (beers (control 146±30 μM), final cysteine concentration 10 mM (1210 mg/l), mean ±SEM) of the same compound?
**A.** Its value is 10 ± 3 µM.

**Q.** And the “acetaldehyde in the products eliminated” value (the products (beers and yoghurts), 3 mM of cysteine (363 mg/l))?
**A.** Its value is “over 80%”.

**Q.** And the “acetaldehyde concentration” value (yoghurts (control 419±53 μM), cysteine concentration 0.1 mM (12.1 mg/l))?
**A.** The value was 240 ± 42 µM.

**Q.** And the “acetaldehyde concentration” value (yoghurts (control 419±53 μM), cysteine concentration 3 mM (363 mg/l))?
**A.** Its value is 55 ± 15 µM.

**Q.** And the “acetaldehyde concentration” value (yoghurts (control 419±53 μM), cysteine concentration 10 mM (1210 mg/l))?
**A.** Its value is 15 ± 2 µM.
